Reference: publication PMC13155482 (Science Advances, 2025)
Numbering of substitutions follows the chain as printed. Read-outs that look alike come from different tables or passages of the source.

Columns and labels:
[1] = target: T1, 5-HT1A S199A (Homo sapiens, UniProt P08908, S199A); details: Gz
T1 sequence (P08908 1-422 S199A): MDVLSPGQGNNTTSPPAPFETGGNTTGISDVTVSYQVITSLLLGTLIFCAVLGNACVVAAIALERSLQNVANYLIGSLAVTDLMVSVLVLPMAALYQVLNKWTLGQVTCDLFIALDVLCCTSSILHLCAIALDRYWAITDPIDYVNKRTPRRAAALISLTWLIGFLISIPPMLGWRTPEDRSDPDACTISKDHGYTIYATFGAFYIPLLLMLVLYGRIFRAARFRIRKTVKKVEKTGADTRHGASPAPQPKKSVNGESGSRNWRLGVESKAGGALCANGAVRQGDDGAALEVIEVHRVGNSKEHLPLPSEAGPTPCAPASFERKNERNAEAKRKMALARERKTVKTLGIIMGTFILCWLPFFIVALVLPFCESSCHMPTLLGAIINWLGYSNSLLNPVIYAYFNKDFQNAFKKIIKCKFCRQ

[2] = target: T2, 5-HT1A F112A (Homo sapiens, UniProt P08908, F112A); details: Goa
T2 sequence (P08908 1-422 F112A): T1 sequence (P08908 1-422 S199A) with F112A, A199S

[3] = target: T3, 5-HT1A (Homo sapiens, UniProt P08908); experiment: BRET Goa activation at WT 5-HT1A
T3 sequence (P08908 1-422): T1 sequence (P08908 1-422 S199A) with A199S

[4] = target: T3, 5-HT1A; experiment: BRET Gi1 activation at WT 5-HT1A; details: Gi1, WT 5-HT1A, compared to antagonist methiothepin
[5] = target: T4, 5-HT1A, Gi1 D315P (Homo sapiens, UniProt P08908); details: activity comparable to vehicle
T4 sequence (P08908 1-422): T1 sequence (P08908 1-422 S199A) with A199S

[6] = target: T5, 5-HT1A I189A (Homo sapiens, UniProt P08908, I189A); details: 5-HT1A I189 mutant
T5 sequence (P08908 1-422 I189A): T1 sequence (P08908 1-422 S199A) with I189A, A199S

[7] = target: T6, 5-HT1A A222V (Homo sapiens, UniProt P08908, A222V); details: Goa
T6 sequence (P08908 1-422 A222V): T1 sequence (P08908 1-422 S199A) with A199S, A222V

[8] = target: T1, 5-HT1A S199A; details: Gi1, 5-HT1A S199A
[9] = target: T1, 5-HT1A S199A; experiment: cell-based; details: EC50, Goa
[10] = target: T3, 5-HT1A; experiment: 5-HT1A-mediated cAMP inhibition; assay type: cell-based
[11] = target: T2, 5-HT1A F112A; details: Gi1, 5-HT1A F112A
[12] = target: T2, 5-HT1A F112A; details: Gz

## CN1CC2c3ccccc3Oc3ccc(Cl)cc3C2C1 (stereo not drawn) [Asenapine]
[1]
  activation: no significant activity
[2]
  effect of F112A mutation on efficacy: seemingly ablates
[3]
  EC50: 9.12 nM
[4]
  Gi1 activation: no significant activity
[5]
  signaling through Gi1 D315P: loss of concentration-dependent agonist signaling
[6]
  effect of I189 mutation on activity: ablates asenapine activity
[7]
  Emax (%WT 5-HT): 64.7 %WT 5-HT
[8]
  activation: no significant activity
[9]
  EC50: 6.84 nM
[10]
  agonist character in cAMP inhibition: partial agonists

## CN1CCN2c3ccccc3Cc3ccccc3C2C1 (stereo not drawn) [mianserin]
[10]; HEK293T, compared to 5-HT
  agonist character in cAMP inhibition: nearly a full agonist

## O=C1CC2(CCCC2)CC(=O)N1CCCCN1CCN(c2ncccn2)CC1 [Buspirone]
[2]
  effect of F112A mutation on efficacy: seemingly ablates efficacy
[11]
  effect of F112A mutation on efficacy: seemingly ablates efficacy
[12]
  effect of F112A mutation on efficacy: seemingly ablates efficacy

## O=C1CC2(CCCC2)CC(=O)N1CCCCN1CCN(c2nsc3ccccc23)CC1 [Tiospirone]
[10]; HEK293T, compared to 5-HT
  agonist character in cAMP inhibition: partial agonists
